Here are results for 2 molecules from US11872210B2, “Thiol isomerases inhibitors and use thereof” (WESTERN NEW ENGLAND UNIVERSITY, priority 2017, dated 2024).

By inhibition is commonly meant the share of the control response that was lost under treatment. The low end stands for a response near the control, the high end for a response far below the control.

Assay [1] concerns the target T1, ERp57 (Homo sapiens, UniProt P30101).
T1 construct: purchased AbCam (Cambridge Mass.)
T1 sequence (P30101 25-505): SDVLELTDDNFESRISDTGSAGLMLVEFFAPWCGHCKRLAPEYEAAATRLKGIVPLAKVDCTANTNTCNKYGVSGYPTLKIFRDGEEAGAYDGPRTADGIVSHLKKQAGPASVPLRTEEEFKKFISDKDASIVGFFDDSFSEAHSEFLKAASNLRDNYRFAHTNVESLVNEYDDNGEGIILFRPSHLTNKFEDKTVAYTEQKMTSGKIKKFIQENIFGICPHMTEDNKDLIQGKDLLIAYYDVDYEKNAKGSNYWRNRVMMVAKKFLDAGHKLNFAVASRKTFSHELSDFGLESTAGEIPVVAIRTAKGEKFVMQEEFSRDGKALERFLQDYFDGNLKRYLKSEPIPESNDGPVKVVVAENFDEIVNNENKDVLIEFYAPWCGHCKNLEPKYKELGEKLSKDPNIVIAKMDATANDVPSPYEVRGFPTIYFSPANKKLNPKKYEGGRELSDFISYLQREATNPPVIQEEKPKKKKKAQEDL
Kind of assay: Insulin-based turbidometric assay of thiol isomerase inhibitory activity (ERp57). The class given is biochemical. To be noted: specificity assay, insulin turbidity.

Assay [2] concerns human washed platelets. Briefly: Collagen stimulated platelet aggregation. To be noted: collagen 1 μg/mL, 3 minutes. Format: cell-based. Here is the method: Human Platelet Preparation: 50 mL of blood was drawn from drug free, consenting individuals, into a syringe containing 5 mL sodium citrate (4% w/v) and 7.5 mL warmed ACD (85 mM sodium citrate, 71 mM citric acid and 110 mM glucose). Blood was centrifuged at 102 g for 20 minutes to obtain platelet-rich plasma (PRP), which was then decanted and 104 prostacyclin (PGI2 125 μg/mL, solubilized in ethanol) added. Platelets were pelleted by centrifugation at 1413 g for 10 minutes, platelet poor plasma was discarded and the pellet resuspended in 25 mL Tyrode's-HEPES buffer (134 mM NaCl, 2.9 mM KCl, 0.34 mM Na2HPO4, 12 mM NaHCO3, 20 mM HEPES, 1 mM MgCl2 and 5 mM glucose pH 7.3), 3 mL of ACD and 10 μL PGI2 were added and then following centrifugation at 1413 g for 10 minutes, the platelet pellet was re-suspended to the appropriate cell density using Tyrode's buffer. Platelets were rested for 30 minutes at 30° C. to allow platelet responses to recover.
Platelet Aggregation: 445 μL of washed platelets at (4×10^8 cells/mL) were incubated for 5 minutes with vehicle (0.1% (v/v) DMSO) or 54 zafirlukast or montelukast. 50 μL of collagen 1 μg/mL (final), was added and light transmission monitored for 3 minutes at 37° C. with constant stirring (1200 rpm) using an aggregometer (Chronolog, USA).
Statistical analyses: All raw data was analyzed by 1-way ANOVA and where appropriate normalized to vehicle. GraphPad Prism was used to perform statistical analysis by ANOVA or students T test. The level of significance of p values is as follows, *p<0.05,**p<0.01, ***p<0.005. Data presented are mean+/−standard error of the mean.
Zafirlukast inhibits platelet aggregation: Human washed platelets (4×10^8 cells/mL) were pre-treated with 0.1 μM-10 μM zafirlukast or vehicle. Platelets were stimulated with collagen 1 μg/mL and allowed to aggregate for 3 minutes. Aggregation traces representative of the response were obtained and dose responses compared.

SMILES strings stand for the structures.

With `CC(C)(C=O)Cc1cc(C(C)(C)C)c(O)c(C(C)(C)C)c1` [CGP-13501], the “specificity among thiol isomerases” value in assay [1] was “specific for ERp57”.

As to `CC(C)(O)c1ccccc1CC[C@@H](SCC1(CC(=O)O)CC1)c1cccc(/C=C/c2ccc3ccc(Cl)cc3n2)c1` [montelukast, [R-(E)]-1-[[[1-[3-[2-(7-chloro-2-quinolinyl)ethenyl]phenyl]-3-[2-(7-chloro-2-quinolinyl)ethenyl]phenyl]-3-[2-(1-hydroxy-1-methylethyl)phenyl]propyl]thio]methyl cyclopropane acetic acid], the “platelet aggregation, normalized to vehicle” value in assay [2] (10 μM) is 3.99±0.800%. At 2.5 µM the inhibition in assay [2] (Homo sapiens, Platelet, 0.05 h, 2.5 μM) was 62.1%. Also, the inhibition at 3.75 µM in assay [2] (Homo sapiens, Platelet, 0.05 h, 3.75 μM) worked out at 83.6%. At 5 µM the inhibition in assay [2] (Homo sapiens, Platelet, 0.05 h, 5 μM) was 90.6%. This molecule also gave an inhibition at 10 µM in assay [2] (Homo sapiens, Platelet, 0.05 h, 10 μM) of 96.1%.
